From patent US3965109A, “Certain aryl amino pyridines” (priority 1971, dated 1976)

Assays:
Assay type in all cases: in vivo
[1] = test system: Tetranychus telarius (red spider mites, adults); experiment: Pest toxicity test; settings: 0.1% by weight; French bean; 3 days
[2] = test system: Aedes aegypti (mosquito adults); experiment: Pest toxicity test; settings: 0.01% by weight; plywood; 1 day
Oat = experiment: Further herbicidal test, various rates; settings: scale 0 to 5 (complete kill)
[3] = test system: Tetranychus telarius (red spider mites, eggs); experiment: Pest toxicity test; settings: 0.1% by weight; French bean; 3 days
Carrot = experiment: Further herbicidal test, various rates; settings: scale 0 to 5 (complete kill)
[4] = test system: Phaedon cochleariae (mustard beetles); experiment: Pest toxicity test; settings: 0.1% by weight; mustard/paper; 2 days
Megoura viceae = experiment: Pest toxicity test; settings: 0.1% by weight; broad bean; 2 days
Onion = experiment: Further herbicidal test, various rates; settings: scale 0 to 5 (complete kill)
[5] = test system: Pieris brassicae (cabbage white caterpillars); experiment: Pest toxicity test; settings: 0.1% by weight, 2 days
[6] = test system: larvae of the tick Boophilus microplus; experiment: Similar test on tick larvae on filter paper without horse serum
[7] = test system: Plutella maculipennis (diamond back moth larvae); experiment: Pest toxicity test; settings: 0.1% by weight; mustard/paper; 2 days
Uncinula necator (vine) = experiment: Fungicidal test against foliar disease D (foliage spray plus soil drench); settings: 100 ppm spray and drench; 10 days
Barley = experiment: Further herbicidal test, various rates; settings: scale 0 to 5 (complete kill)
[8] = test system: Musca domestica (houseflies); experiment: Pest toxicity test, contact test; settings: 0.1% by weight; milk/sugar; 2 days; flies sprayed directly
[9] = test system: larvae of the blowfly (Lucilia serrata); experiment: Insecticidal test on blowfly larvae on treated filter paper; settings: scale of 1 to 6; filter paper with horse serum
[10] = test system: Plasmopara viticola (vine); experiment: Fungicidal test against foliar disease C (foliage spray plus soil drench); settings: 100 ppm spray and drench; 10 days
Maize = experiment: Herbicidal test, pre- and post-emergence; settings: 10 kg/ha; scale 0 to 3 (complete kill)
Rice = experiment: Further herbicidal test, various rates; settings: scale 0 to 5 (complete kill)
Kale = experiment: Further herbicidal test, various rates; settings: scale 0 to 5 (complete kill)
[11] = test system: Puccinia recondita (wheat); experiment: Fungicidal test against foliar disease A (foliage spray plus soil drench); settings: 100 ppm spray and drench; 10 days
Pea = experiment: Further herbicidal test, various rates; settings: scale 0 to 5 (complete kill)
Tomato = experiment: Herbicidal test, pre- and post-emergence; settings: 10 kg/ha; scale 0 to 3 (complete kill)
[12] = test system: Aedes aegypti (mosquito larvae); experiment: Pest toxicity test; settings: 0.01% by weight; water; 1 day
Sugar beet = experiment: Further herbicidal test, various rates; settings: scale 0 to 5 (complete kill)
Lettuce = experiment: Herbicidal test, pre- and post-emergence; settings: 10 kg/ha; scale 0 to 3 (complete kill)
Aphis fabae = experiment: Pest toxicity test; settings: 0.1% by weight; broad bean; 2 days
Wheat = experiment: Herbicidal test, pre- and post-emergence; settings: 10 kg/ha; scale 0 to 3 (complete kill)

## O=[N+]([O-])c1ccc(Nc2c(F)c(F)nc(F)c2F)c(C(F)(F)F)c1 [Compound 28, 4-(4-Nitro-2-trifluoromethylanilino)-tetrafluoropyridine]
[1]
  Mortality grading (kill): 3 (3 represents over 90% kill)
[2]
  Mortality grading (kill): 3 (3 represents over 90% kill)
Oat; 1 kg/hectare
  Damage to plants, post-emergence: 2
  Damage to plants, pre-emergence: 4
Oat; 5 kg/hectare
  Damage to plants, post-emergence: 0
  Damage to plants, pre-emergence: 5
[3]
  Mortality grading (kill): 3 (3 represents over 90% kill)
Carrot; 1 kg/hectare
  Damage to plants, post-emergence: 3
  Damage to plants, pre-emergence: 4
Carrot; 5 kg/hectare
  Damage to plants, post-emergence: 4
  Damage to plants, pre-emergence: 5
[4]
  Mortality grading (kill): 3 (3 represents over 90% kill)
Megoura viceae
  Mortality grading (kill): 3 (3 represents over 90% kill)
Onion; 1 kg/hectare
  Damage to plants, post-emergence: 3
  Damage to plants, pre-emergence: 5
Onion; 5 kg/hectare
  Damage to plants, post-emergence: 0
  Damage to plants, pre-emergence: 5
[5]
  Mortality grading (kill): 3 (3 represents over 90% kill)
[6]
  times more toxic than lindane: 10 times
[7]
  Mortality grading (kill): 3 (3 represents over 90% kill)
Uncinula necator (vine)
  Amount of disease grading, disease D (Table 4): 3 (0 to 5)
Barley; 1 kg/hectare
  Damage to plants, post-emergence: 1
  Damage to plants, pre-emergence: 4
Barley; 5 kg/hectare
  Damage to plants, post-emergence: 0
  Damage to plants, pre-emergence: 5
[8]
  Mortality grading (kill), contact test: 3 (3 represents over 90% kill)
[9]
  Activity relative to lindane: 6 (6 represents activity 10 times that of the standard)
[10]
  Amount of disease grading, disease C (Table 4): 3 (0 to 5)
Maize
  Damage to plants, post-emergence: 0
  Damage to plants, pre-emergence: 0
Rice; 1 kg/hectare
  Damage to plants, post-emergence: 0
  Damage to plants, pre-emergence: 4
Rice; 5 kg/hectare
  Damage to plants, post-emergence: 0
  Damage to plants, pre-emergence: 5
Kale; 1 kg/hectare
  Damage to plants, post-emergence: 5
  Damage to plants, pre-emergence: 4
Kale; 5 kg/hectare
  Damage to plants, post-emergence: 4
  Damage to plants, pre-emergence: 5
[11]
  Amount of disease grading, disease A (Table 4): 0 (61 to 100)
Pea; 1 kg/hectare
  Damage to plants, pre-emergence: 5
Pea; 5 kg/hectare
  Damage to plants, post-emergence: 0
  Damage to plants, pre-emergence: 5
Tomato
  Damage to plants, post-emergence: 3
  Damage to plants, pre-emergence: 3
[12]
  Mortality grading (kill): 3 (3 represents over 90% kill)
Sugar beet; 1 kg/hectare
  Damage to plants, post-emergence: 5
  Damage to plants, pre-emergence: 5
Sugar beet; 5 kg/hectare
  Damage to plants, post-emergence: 5
  Damage to plants, pre-emergence: 5
Lettuce
  Damage to plants, post-emergence: 3
  Damage to plants, pre-emergence: 3
Aphis fabae
  Mortality grading (kill): 3 (3 represents over 90% kill)
Wheat
  Damage to plants, post-emergence: 1
  Damage to plants, pre-emergence: 3
